For test [1], the target named is T1, Eukaryotic elongation factor 2 kinase (Homo sapiens) (UniProt O00418).
T1 sequence (whole entry): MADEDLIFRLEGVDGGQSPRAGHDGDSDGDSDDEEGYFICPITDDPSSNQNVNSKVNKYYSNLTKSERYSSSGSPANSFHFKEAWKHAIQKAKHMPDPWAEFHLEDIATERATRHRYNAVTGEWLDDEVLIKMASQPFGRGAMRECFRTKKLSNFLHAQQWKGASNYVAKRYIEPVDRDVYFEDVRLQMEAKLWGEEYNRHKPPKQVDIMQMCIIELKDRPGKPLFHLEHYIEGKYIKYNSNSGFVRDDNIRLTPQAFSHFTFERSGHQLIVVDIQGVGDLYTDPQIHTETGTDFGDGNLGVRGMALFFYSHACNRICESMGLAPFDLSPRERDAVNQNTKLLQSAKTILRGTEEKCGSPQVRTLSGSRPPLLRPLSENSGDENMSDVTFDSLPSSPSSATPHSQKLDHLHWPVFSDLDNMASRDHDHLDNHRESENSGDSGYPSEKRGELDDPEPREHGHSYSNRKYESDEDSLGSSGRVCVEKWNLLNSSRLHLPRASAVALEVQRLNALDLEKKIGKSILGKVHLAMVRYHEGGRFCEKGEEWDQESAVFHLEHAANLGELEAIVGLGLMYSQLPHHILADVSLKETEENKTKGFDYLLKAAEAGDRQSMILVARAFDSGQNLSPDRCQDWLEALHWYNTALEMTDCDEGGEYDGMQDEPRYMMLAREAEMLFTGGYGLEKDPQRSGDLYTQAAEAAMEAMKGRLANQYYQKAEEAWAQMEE
The test can be described thus: Percentage EF2K activity remaining in the presence of 0.1uM inhibitor.

Test [2] has as its target T2, Mitogen-activated protein kinase 13 (Homo sapiens) (UniProt O15264).
T2 sequence (whole entry): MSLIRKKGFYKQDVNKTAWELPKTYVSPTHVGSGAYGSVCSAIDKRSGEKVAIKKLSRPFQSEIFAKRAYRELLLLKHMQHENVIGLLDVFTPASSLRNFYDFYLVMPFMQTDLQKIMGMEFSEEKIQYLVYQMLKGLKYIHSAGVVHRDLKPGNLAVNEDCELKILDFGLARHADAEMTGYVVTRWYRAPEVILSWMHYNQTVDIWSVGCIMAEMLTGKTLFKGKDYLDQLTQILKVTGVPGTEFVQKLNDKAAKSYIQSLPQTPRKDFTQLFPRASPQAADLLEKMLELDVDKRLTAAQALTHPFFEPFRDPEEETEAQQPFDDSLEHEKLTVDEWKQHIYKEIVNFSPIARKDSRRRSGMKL
Briefly: Percentage p38delta activity remaining in the presence of 0.1uM inhibitor.

For test [3], the target named is Mitogen-activated protein kinase 14 (Homo sapiens, UniProt Q16539). Briefly: Percentage p38alpha activity remaining in the presence of 0.1uM inhibitor.
Chain of Mitogen-activated protein kinase 14 (Q16539 whole entry): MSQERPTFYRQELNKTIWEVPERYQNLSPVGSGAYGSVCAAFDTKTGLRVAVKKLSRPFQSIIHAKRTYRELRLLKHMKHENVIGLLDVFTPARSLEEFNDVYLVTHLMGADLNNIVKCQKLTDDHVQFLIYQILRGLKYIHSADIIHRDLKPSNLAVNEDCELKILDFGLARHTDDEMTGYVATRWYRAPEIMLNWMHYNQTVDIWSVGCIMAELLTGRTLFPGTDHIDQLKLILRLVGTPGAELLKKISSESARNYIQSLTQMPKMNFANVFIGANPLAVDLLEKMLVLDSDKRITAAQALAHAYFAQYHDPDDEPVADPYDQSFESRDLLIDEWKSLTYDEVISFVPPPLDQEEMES
For test [4], the target named is SRSF protein kinase 1 (Homo sapiens) (UniProt Q96SB4). The test can be described thus: Percentage SRPK1 activity remaining in the presence of 0.1uM inhibitor.
Chain of SRSF protein kinase 1 (Homo sapiens) (Q96SB4 whole entry): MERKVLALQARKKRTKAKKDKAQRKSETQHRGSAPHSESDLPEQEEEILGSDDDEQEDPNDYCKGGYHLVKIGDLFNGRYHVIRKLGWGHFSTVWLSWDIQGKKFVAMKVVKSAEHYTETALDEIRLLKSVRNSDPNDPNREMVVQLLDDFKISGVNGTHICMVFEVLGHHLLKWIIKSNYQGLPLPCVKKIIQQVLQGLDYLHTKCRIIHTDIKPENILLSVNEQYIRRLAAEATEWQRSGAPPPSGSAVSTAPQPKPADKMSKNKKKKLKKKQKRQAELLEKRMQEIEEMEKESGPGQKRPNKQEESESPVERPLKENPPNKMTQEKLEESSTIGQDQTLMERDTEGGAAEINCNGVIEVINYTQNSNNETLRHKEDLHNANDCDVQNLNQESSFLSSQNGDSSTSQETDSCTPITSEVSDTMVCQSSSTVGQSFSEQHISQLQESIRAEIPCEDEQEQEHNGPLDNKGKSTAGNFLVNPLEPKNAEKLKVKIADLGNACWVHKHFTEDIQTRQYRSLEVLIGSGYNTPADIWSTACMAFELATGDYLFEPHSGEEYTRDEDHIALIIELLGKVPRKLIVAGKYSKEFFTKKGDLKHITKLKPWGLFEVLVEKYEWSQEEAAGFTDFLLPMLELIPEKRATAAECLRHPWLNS
In test [5] the target is Calcium/calmodulin-dependent protein kinase kinase 1 (Homo sapiens) (UniProt Q8N5S9). The test can be described thus: Percentage CaMKKalpha activity remaining in the presence of 0.1uM inhibitor.
Chain of Calcium/calmodulin-dependent protein kinase kinase 1 (Homo sapiens) (Q8N5S9 whole entry, looked up): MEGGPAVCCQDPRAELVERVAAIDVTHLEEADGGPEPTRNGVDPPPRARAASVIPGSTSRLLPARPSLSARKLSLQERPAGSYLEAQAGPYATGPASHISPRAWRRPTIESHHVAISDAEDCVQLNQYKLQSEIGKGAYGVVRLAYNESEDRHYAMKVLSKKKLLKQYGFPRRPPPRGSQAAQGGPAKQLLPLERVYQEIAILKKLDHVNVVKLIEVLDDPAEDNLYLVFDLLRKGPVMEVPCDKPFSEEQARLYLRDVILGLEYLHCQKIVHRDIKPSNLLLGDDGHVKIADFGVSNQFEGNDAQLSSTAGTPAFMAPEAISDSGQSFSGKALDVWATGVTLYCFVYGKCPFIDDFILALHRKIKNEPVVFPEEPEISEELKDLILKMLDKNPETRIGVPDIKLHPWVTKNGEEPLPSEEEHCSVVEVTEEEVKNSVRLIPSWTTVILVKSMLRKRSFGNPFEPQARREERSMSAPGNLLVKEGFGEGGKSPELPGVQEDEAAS
Test [6] addresses Serine/threonine-protein kinase PAK 6 (Homo sapiens) (UniProt Q9NQU5). Briefly: Percentage PAK6 activity remaining in the presence of 0.1uM inhibitor.
Test [7] deals with Maternal embryonic leucine zipper kinase (Homo sapiens) (UniProt Q14680). Briefly: Percentage MELK activity remaining in the presence of 0.1uM inhibitor.
Chain of Maternal embryonic leucine zipper kinase (Homo sapiens) (Q14680 whole entry, looked up): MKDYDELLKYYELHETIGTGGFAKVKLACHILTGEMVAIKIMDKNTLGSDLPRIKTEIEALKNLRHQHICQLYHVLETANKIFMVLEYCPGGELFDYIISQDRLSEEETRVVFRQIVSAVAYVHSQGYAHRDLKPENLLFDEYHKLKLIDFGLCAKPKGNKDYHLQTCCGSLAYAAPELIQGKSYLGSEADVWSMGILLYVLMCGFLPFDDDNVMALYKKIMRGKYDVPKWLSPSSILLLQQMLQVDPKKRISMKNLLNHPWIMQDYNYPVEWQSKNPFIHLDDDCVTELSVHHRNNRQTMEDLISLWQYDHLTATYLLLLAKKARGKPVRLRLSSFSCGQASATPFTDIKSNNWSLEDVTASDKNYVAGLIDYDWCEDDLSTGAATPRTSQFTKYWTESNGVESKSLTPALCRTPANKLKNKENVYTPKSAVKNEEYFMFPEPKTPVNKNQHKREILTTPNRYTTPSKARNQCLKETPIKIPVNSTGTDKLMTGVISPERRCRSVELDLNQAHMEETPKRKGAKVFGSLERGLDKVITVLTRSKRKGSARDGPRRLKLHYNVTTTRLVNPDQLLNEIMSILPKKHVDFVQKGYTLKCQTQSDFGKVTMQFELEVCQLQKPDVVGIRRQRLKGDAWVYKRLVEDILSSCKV
The target of test [8] is T3, Serine/threonine-protein kinase BRSK2 (Homo sapiens) (UniProt Q8IWQ3).
T3 sequence (whole entry): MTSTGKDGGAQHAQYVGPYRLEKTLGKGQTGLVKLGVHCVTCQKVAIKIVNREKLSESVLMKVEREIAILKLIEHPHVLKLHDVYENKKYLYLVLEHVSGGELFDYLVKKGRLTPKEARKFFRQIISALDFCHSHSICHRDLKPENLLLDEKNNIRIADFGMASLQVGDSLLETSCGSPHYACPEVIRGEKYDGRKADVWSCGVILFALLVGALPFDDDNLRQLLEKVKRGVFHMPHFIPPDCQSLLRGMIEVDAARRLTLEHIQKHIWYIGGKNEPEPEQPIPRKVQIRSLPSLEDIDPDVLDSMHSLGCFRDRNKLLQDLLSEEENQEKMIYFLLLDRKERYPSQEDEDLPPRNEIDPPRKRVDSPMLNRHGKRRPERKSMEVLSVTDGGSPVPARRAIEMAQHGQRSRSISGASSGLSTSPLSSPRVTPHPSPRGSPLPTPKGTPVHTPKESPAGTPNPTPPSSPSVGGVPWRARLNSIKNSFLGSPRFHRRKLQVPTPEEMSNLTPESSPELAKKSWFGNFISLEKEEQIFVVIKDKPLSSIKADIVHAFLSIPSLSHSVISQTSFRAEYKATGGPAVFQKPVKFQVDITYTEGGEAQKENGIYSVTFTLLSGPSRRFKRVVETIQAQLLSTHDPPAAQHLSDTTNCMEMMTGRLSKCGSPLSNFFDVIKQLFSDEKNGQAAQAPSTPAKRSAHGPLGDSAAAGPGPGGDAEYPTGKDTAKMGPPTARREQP
The test can be described thus: Percentage BRSK2 activity remaining in the presence of 0.1uM inhibitor.

Test [9] addresses Serine/threonine-protein kinase pim-2 (Homo sapiens, UniProt Q9P1W9). Briefly: Percentage PIM2 activity remaining in the presence of 0.1uM inhibitor.
Test [10] addresses T4, Serine/threonine-protein kinase Sgk1 (Homo sapiens) (UniProt O00141).
T4 sequence (whole entry): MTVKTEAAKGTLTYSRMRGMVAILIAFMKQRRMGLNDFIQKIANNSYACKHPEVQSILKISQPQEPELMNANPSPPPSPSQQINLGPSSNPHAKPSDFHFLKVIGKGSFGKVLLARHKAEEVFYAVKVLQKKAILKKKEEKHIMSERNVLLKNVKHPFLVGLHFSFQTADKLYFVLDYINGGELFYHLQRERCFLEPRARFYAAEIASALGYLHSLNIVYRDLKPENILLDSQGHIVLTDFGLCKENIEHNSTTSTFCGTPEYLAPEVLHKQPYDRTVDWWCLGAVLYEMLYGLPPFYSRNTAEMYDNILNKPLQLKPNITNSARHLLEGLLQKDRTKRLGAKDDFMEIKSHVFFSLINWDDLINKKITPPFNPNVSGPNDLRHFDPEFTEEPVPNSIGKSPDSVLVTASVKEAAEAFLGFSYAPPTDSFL
The test can be described thus: Percentage SGK1 activity remaining in the presence of 0.1uM inhibitor.

Chain of Serine/threonine-protein kinase PAK 6 (Homo sapiens) (Q9NQU5 whole entry, looked up): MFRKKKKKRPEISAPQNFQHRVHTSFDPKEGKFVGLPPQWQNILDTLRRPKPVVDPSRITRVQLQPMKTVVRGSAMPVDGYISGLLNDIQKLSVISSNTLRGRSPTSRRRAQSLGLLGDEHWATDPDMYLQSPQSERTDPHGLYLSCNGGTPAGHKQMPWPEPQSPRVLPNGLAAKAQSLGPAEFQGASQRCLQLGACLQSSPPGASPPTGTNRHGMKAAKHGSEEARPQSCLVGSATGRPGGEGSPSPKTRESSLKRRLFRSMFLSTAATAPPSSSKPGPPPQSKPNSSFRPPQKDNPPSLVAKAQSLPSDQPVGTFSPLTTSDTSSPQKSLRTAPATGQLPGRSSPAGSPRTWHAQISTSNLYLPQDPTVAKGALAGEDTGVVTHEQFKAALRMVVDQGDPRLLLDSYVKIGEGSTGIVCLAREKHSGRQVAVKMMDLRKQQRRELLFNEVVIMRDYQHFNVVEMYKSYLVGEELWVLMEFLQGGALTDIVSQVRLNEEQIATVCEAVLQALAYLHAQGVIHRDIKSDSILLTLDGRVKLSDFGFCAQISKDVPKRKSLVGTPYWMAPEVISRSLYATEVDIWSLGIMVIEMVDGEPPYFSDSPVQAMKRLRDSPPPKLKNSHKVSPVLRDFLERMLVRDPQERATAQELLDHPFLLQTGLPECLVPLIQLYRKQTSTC
Chain of Serine/threonine-protein kinase pim-2 (Q9P1W9 whole entry, looked up): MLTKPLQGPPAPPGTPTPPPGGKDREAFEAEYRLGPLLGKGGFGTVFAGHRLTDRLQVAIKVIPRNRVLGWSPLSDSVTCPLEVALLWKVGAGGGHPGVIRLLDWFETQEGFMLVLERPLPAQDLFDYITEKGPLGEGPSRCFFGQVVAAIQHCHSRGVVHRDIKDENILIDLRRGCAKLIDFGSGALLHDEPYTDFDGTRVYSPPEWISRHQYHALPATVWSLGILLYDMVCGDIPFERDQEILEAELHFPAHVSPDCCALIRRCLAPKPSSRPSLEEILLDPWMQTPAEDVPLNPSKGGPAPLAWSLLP

On to `CC(C)CCN1c2nc(Nc3cc(F)c(O)c(F)c3)ncc2N(C)C(=O)C1C` (centres undefined), for which the Activity in test [1] stood at 88%; in test [2], 105%; in test [3] it was 88%; in test [4], 94%; in test [5], 92%; in test [6] it was 102%. Also, the Activity in test [7] (filed as antagonist) was 40%; in test [8], 78%; in [9], 100%; in test [10] it was 112%.

As to `CC(C)[C@H](CO)Nc1nc(Nc2cccc(Cl)c2)c2ncn(C(C)C)c2n1` [PURVALANOLA], the Activity in test [1] was found to be 95%; in test [2], 98%; in [3] it was 95%; in test [4], 79%; in test [5] it was 76%; in [6], 67%. The Activity in test [7] was determined as 72%; in test [8] it was 76%; in [9], 96%; in test [10] it was 82%.

On to `Cn1cc(C2=C(c3cn(CCCSC(=N)N)c4ccccc34)C(=O)NC2=O)c2ccccc21`, for which the Activity in test [1] is 101%; in test [2], 92%; in test [3], 102%; in [4], 82%; in test [5] it was 104%; in test [6], 76%. In addition, the Activity is 61% in [7], 65% in test [8], 30% in test [9] (filed as antagonist) and 39% in test [10] (filed as antagonist).

With `Cc1n[nH]c2ccc(-c3cncc(OC[C@@H](N)Cc4c[nH]c5ccccc45)c3)cc12`, the Activity came to 94% in test [1]; 68% in test [2]; 92% in test [3]; 91% in [4]; 117% in test [5]; 87% in [6]. Also, the Activity is 63% in test [7], 79% in [8], 15% in test [9] (filed as antagonist) and 53% in test [10].

For `O=C(NCCCNc1nc(Nc2cccc(NC(=O)N3CCCC3)c2)ncc1I)c1cccs1`, the Activity was 93% in test [1]; 76% in test [2]; 87% in [3]; 86% in test [4]; 69% in [5]; 85% in [6]. Moreover, the Activity in test [7] (filed as antagonist) was 32%; in [8] (filed as antagonist) it was 45%; in test [9] it was 92%; in [10] (filed as antagonist), 48%.

Turning to `Cn1c2ccccc2c2c3c(c4c5ccccc5n(CCC#N)c4c21)CNC3=O`, the Activity is 100% in [1]; 82% in test [2]; 100% in test [3]; 92% in [4]; 27% in test [5] (filed as antagonist); 6% in [6] (filed as antagonist). Further, the Activity in test [7] (filed as antagonist) was 15%; in test [8] (filed as antagonist), 46%; in test [10] (filed as antagonist), 44%.

Regarding `CN(C)C[C@@H]1CCn2cc(c3ccccc32)C2=C(C(=O)NC2=O)c2cn(c3ccccc23)CCO1`, the Activity is 90% in test [1]; 97% in [5]; 81% in test [6]; 41% in [9] (filed as antagonist); 66% in [10].

The record behind these values is ChEMBL document CHEMBL1150976, “The selectivity of protein kinase inhibitors: a further update” (Biochem J, 2007).
